In patent publication US20080132536A1, “PYRAZOLO [3,4-B] PYRIDINE COMPOUNDS, AND THEIR USE AS PDE4 INHIBITORS” (Glaxo Group Limited, priority 2003, published 2008):

Target: T1, PDE4B (human recombinant) (Homo sapiens, UniProt Q07343)
T1 construct: made in house
Assay: PDE4B inhibition, radioactive SPA and/or IMAP fluorescence polarisation (FP) assay
Format: biochemical
Conditions: for IC50: one reading or average of several (ca. 2-6) readings, SPA and/or FP assay, range given for a group of Examples, read-out: PDE4B pIC50 (±about 0.5) (converted); for PDE4B inhibitory activity compared with the comparable Example of opposite stereochemistry at the CR4R5 (benzylic) carbon atom: comparators: Examples 6, 7, 29, 26, 64, 126, 124, 170, 177
Source text: Human recombinant PDE4B, in particular the 2B splice variant thereof (HSPDE4B2B), is disclosed in WO 94/20079 and also M. M. McLaughlin et al., “A low Km, rolipram-sensitive, cAMP-specific phosphodiesterase from human brain: cloning and expression of cDNA, biochemical characterisation of recombinant protein, and tissue distribution of mRNA”, J. Biol. Chem., 1993, 268, 6470-6476. For example, in Example 1 of WO 94/20079, human recombinant PDE4B is described as being expressed in the PDE-deficient yeast Saccharomyces cerevisiae strain GL62, e.g. after induction by addition of 150 uM CuSO4, and 100,000×g supernatant fractions of yeast cell lysates are described for use in the harvesting of PDE4B enzyme.
The ability of compounds to inhibit catalytic activity at PDE4B or 4D (human recombinant), PDE3 (from bovine aorta), PDE5 (human recombinant) or PDE6 (from bovine retina) can optionally be determined by Scintillation Proximity Assay (SPA) in 96-well format.
Test compounds (as a solution in DMSO, preferably about 2 microlitre (ul) volume of DMSO solution) are preincubated at ambient temperature (room temperature, e.g. 19-23° C.) in Wallac Isoplates (code 1450-514) with PDE enzyme in 50 mM Tris-HCl buffer pH 7.5, 8.3 mM MgCl2, 1.7 mM EGTA, 0.05% (w/v) bovine serum albumin for 10-30 minutes (usually 30 minutes). The enzyme concentration is adjusted so that no more than 20% hydrolysis of the substrate defined below occurs in control wells without compound, during the incubation. For the PDE3, PDE4B and PDE4D assays, [5′,8-3H]Adenosine 3′,5′-cyclic phosphate (Amersham Pharmacia Biotech, code TRK.559; or Amersham Biosciences UK Ltd, Pollards Wood, Chalfont St Giles, Buckinghamshire HP8 4SP, UK) is added to give 0.05 uCi per well and about 10 nM final concentration. For the PDE5 and PDE6 assays, [8-^3H]Guanosine 3′,5′-cyclic phosphate (Amersham Pharmacia Biotech, code TRK.392) is added to give 0.05 uCi per well and about 36 nM final concentration. Plates containing assay mixture, preferably approx. 100 ul volume of assay mixture, are mixed on an orbital shaker for 5 minutes and incubated at ambient temperature for 1 hour. Phosphodiesterase SPA beads (Amersham Pharmacia Biotech, code RPNQ 0150) are added (about 1 mg per well) to terminate the assay. Plates are sealed and shaken and allowed to stand at ambient temperature for 35 minutes to 1 hour (preferably 35 minutes) to allow the beads to settle. Bound radioactive product is measured using a WALLAC TRILUX 1450 Microbeta scintillation counter. For inhibition curves, 10 concentrations (1.5 nM-30 uM) of each compound are assayed. Curves are analysed using ActivityBase and XLfit (ID Business Solutions Limited, 2 Ocean Court, Surrey Research Park, Guildford, Surrey GU2 7QB, United Kingdom) Results are expressed as pIC50 values.
The ability of compounds to inhibit catalytic activity at PDE4B (human recombinant) or PDE4D (human recombinant) can optionally be determined by IMAP Fluorescence Polarisation (FP) assay (IMAP Explorer kit, available from Molecular Devices Corporation, Sunnydale, Calif., USA; Molecular Devices code: R8062) in 384-well format.
The IMAP FP assay is able to measure PDE activity in an homogenous, non-radioactive assay format. The FP assay uses the ability of immobilised trivalent metal cations, coated onto nanoparticles (tiny beads), to bind the phosphate group of Fl-AMP that is produced on the hydrolysis of fluorescein-labelled (Fl) cyclic adenosine mono-phosphate (Fl-cAMP) to the non-cyclic Fl-AMP form. […] Binding of Fl-AMP product to the beads (coated with the immobilised trivalent cations) slows the rotation of the bound Fl-AMP and leads to an increase in the fluorescence polarisation ratio of parallel to perpendicular light. Inhibition of the PDE reduces/inhibits this signal increase. […]

T1 sequence (Q07343 1-564 isoform Q07343-2): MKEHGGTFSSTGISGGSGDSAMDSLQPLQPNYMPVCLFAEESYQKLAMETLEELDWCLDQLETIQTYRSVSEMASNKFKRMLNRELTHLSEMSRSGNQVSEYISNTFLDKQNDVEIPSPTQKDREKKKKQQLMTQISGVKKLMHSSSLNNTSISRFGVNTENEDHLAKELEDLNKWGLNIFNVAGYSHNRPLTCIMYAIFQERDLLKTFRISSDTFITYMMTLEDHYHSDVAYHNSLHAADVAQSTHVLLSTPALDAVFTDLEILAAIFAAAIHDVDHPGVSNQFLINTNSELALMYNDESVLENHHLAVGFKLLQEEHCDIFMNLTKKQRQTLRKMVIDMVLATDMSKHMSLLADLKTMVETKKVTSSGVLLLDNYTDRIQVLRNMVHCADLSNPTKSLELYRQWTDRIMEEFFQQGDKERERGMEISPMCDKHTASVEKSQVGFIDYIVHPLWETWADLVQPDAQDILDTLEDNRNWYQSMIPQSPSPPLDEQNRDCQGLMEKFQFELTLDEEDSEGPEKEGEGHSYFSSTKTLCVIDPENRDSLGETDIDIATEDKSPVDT

Compound	IC50 [nM]	PDE4B inhibitory activity compared with the comparable Example of opposite stereochemistry at the CR4R5 (benzylic) carbon atom
CCn1ncc2c(NC3CCOCC3)c(C(=O)N[C@@H](C)c3cccc4ccccc34)cnc21 [Example 38, 1-ethyl-N-[(1S)-1-(1-naphthalenyl)ethyl]-4-(tetrahydro-2H-pyran-4-ylamino)-1H-pyrazolo[3,4-b]pyridine-5-carboxamide]	12.6 to 25.1	
CCn1ncc2c(NC3CCCCC3)c(C(=O)N[C@H](COC)c3ccccc3)cnc21 [Example 129, 4-(cyclohexylamino)-1-ethyl-N-[(1S)-2-(methyloxy)-1-phenylethyl]-1H-pyrazolo[3,4-b]pyridine-5-carboxamide]		greater PDE4B inhibitory activity
CC[C@@H](NC(=O)c1cnc2c(cnn2CC)c1NC1CCOCC1)c1ccccc1 [Example 1, 1-ethyl-N-[(1R)-1-phenylpropyl]-4-(tetrahydro-2H-pyran-4-ylamino)-1H-pyrazolo[3,4-b]pyridine-5-carboxamide]	0.794 to 5.01	greater PDE4B inhibitory activity
CCC(NC(=O)c1cnc2c(cnn2CC)c1NC1CCC(=O)CC1)c1ccc(C)cc1C (stereo not drawn) [Example 210, N-[1-(2,4-dimethylphenyl)propyl]-1-ethyl-4-[(4-oxocyclohexyl)amino]-1H-pyrazolo[3,4-b]pyridine-5-carboxamide]	0.1 to 2	
CCn1ncc2c(NC3CCOCC3)c(C(=O)N[C@H](C)c3cccc4ccccc34)cnc21 [Example 37, 1-ethyl-N-[(1R)-1-(1-naphthalenyl)ethyl]-4-(tetrahydro-2H-pyran-4-ylamino)-1H-pyrazolo[3,4-b]pyridine-5-carboxamide]	12.6 to 25.1	
CCn1ncc2c(NC3CCOCC3)c(C(=O)NC(CCO)c3ccccc3)cnc21 (stereo not drawn) [Example 13, 1-ethyl-N-(3-hydroxy-1-phenylpropyl)-4-(tetrahydro-2H-pyran-4-ylamino)-1H-pyrazolo[3,4-b]pyridine-5-carboxamide]	0.794 to 5.01	
CCn1ncc2c(NC3CCOCC3)c(C(=O)N[C@H](COC)c3ccccc3)cnc21 [Example 24, 1-ethyl-N-[(1S)-2-(methyloxy)-1-phenylethyl]-4-(tetrahydro-2H-pyran-4-ylamino)-1H-pyrazolo[3,4-b]pyridine-5-carboxamide]	0.794 to 5.01	greater PDE4B inhibitory activity
CCn1ncc2c(NC3CCOCC3)c(C(=O)N[C@@H](COC)c3ccccc3)cnc21 [Example 29, 1-ethyl-N-[(1R)-2-(methyloxy)-1-phenylethyl]-4-(tetrahydro-2H-pyran-4-ylamino)-1H-pyrazolo[3,4-b]pyridine-5-carboxamide]	31.6 to 70.8	
CCC(NC(=O)c1cnc2c(cnn2CC)c1NC1CCC(=O)CC1)c1ccc(Br)cc1 (stereo not drawn) [Example 218, N-[1-(4-bromophenyl)propyl]-1-ethyl-4-[(4-oxocyclohexyl)amino]-1H-pyrazolo[3,4-b]pyridine-5-carboxamide]	0.1 to 2	
CCn1ncc2c(NC3CCOCC3)c(C(=O)N[C@@H](C)c3ccc(OC)cc3)cnc21 [Example 64, 1-ethyl-N-{(1S)-1-[4-(methyloxy)phenyl]ethyl}-4-(tetrahydro-2H-pyran-4-ylamino)-1H-pyrazolo[3,4-b]pyridine-5-carboxamide]	31.6 to 70.8	
CCn1ncc2c(NC3CCOCC3)c(C(=O)N[C@@H](C(N)=O)c3ccccc3)cnc21 [Example 25, N-[(1R)-2-amino-2-oxo-1-phenylethyl]-1-ethyl-4-(tetrahydro-2H-pyran-4-ylamino)-1H-pyrazolo[3,4-b]pyridine-5-carboxamide]	31.6 to 70.8	

Continued, values first:

IC50 [nM]	PDE4B inhibitory activity compared with the comparable Example of opposite stereochemistry at the CR4R5 (benzylic) carbon atom	Compound
39.8 to 158		CC[C@@H](NC(=O)c1cnc2c(cnn2CC)c1N[C@H]1CC[C@H](C(N)=O)CC1)c1ccc(C)cc1C [Example 356, 4-{[trans-4-(aminocarbonyl)cyclohexyl]amino}-N-[(1R)-1-(2,4-dimethylphenyl)propyl]-1-ethyl-1H-pyrazolo[3,4-b]pyridine-5-carboxamide]
0.1 to 2		CCn1ncc2c(NC3CCCC(O)C3)c(C(=O)N[C@H](C)c3ccc(C)cc3)cnc21 (single isomer, unassigned; diastereoisomer 2) [Example 306]
39.8 to 158		CCn1ncc2c(N[C@H]3CC[C@H](C(N)=O)CC3)c(C(=O)N[C@H](C)c3ccc(Br)cc3)cnc21 [Example 359, 4-{[trans-4-(aminocarbonyl)cyclohexyl]amino}-N-[(1R)-1-(4-bromophenyl)ethyl]-1-ethyl-1H-pyrazolo[3,4-b]pyridine-5-carboxamide]
0.501 to 3.16		CCn1ncc2c(NC3CCC(C(N)=O)CC3)c(C(=O)NC(C)c3ccc(OC(F)F)cc3)cnc21 (mixture of isomers) [Example 348, 4-{[4-(aminocarbonyl)cyclohexyl]amino}-N-(1-{4-[(difluoromethyl)oxy]phenyl}ethyl)-1-ethyl-1H-pyrazolo[3,4-b]pyridine-5-carboxamide]
0.501 to 3.16		CC[C@@H](NC(=O)c1cnc2c(cnn2CC)c1NC1CCC(C(N)=O)CC1)c1ccccc1 (mixture of isomers) [Example 347, 4-{[4-(aminocarbonyl)cyclohexyl]amino}-1-ethyl-N-[(1R)-1-phenylpropyl]-1H-pyrazolo[3,4-b]pyridine-5-carboxamide]
0.501 to 3.16		CC[C@@H](NC(=O)c1cnc2c(cnn2CC)c1N[C@H]1CC[C@@H](C(N)=O)CC1)c1ccc(C)cc1C [Example 352, 4-{[cis-4-(aminocarbonyl)cyclohexyl]amino}-N-[(1R)-1-(2,4-dimethylphenyl)propyl]-1-ethyl-1H-pyrazolo[3,4-b]pyridine-5-carboxamide]
0.501 to 3.16		CCC(NC(=O)c1cnc2c(cnn2CC)c1NC1CCC(C(N)=O)CC1)c1ccc(Cl)cc1 (mixture of isomers) [Example 346, 4-{[4-(aminocarbonyl)cyclohexyl]amino}-N-[1-(4-chlorophenyl)propyl]-1-ethyl-1H-pyrazolo[3,4-b]pyridine-5-carboxamide]
0.501 to 3.16		CCn1ncc2c(N[C@H]3CC[C@@H](C(N)=O)CC3)c(C(=O)N[C@H](C)c3ccc(Br)cc3)cnc21 [Example 355, 4-{[cis-4-(aminocarbonyl)cyclohexyl]amino}-N-[(1R)-1-(4-bromophenyl)ethyl]-1-ethyl-1H-pyrazolo[3,4-b]pyridine-5-carboxamide]
39.8 to 158		CCn1ncc2c(N[C@H]3CC[C@H](C(N)=O)CC3)c(C(=O)N[C@H](C)c3ccc(C)cc3)cnc21 [Example 357, 4-{[trans-4-(aminocarbonyl)cyclohexyl]amino}-1-ethyl-N-[(1R)-1-(4-methylphenyl)ethyl]-1H-pyrazolo[3,4-b]pyridine-5-carboxamide]
39.8 to 158		CCn1ncc2c(N[C@H]3CC[C@H](C(N)=O)CC3)c(C(=O)N[C@H](C)c3ccccc3)cnc21 [Example 358, 4-{[trans-4-(aminocarbonyl)cyclohexyl]amino}-1-ethyl-N-[(1R)-1-phenylethyl]-1H-pyrazolo[3,4-b]pyridine-5-carboxamide]
0.1 to 2		CCC(NC(=O)c1cnc2c(cnn2CC)c1NC1CCC(=NO)CC1)c1ccc(C)cc1 (stereo not drawn) [Example 252, 1-ethyl-4-{[4-(hydroxyimino)cyclohexyl]amino}-N-[1-(4-methylphenyl)propyl]-1H-pyrazolo[3,4-b]pyridine-5-carboxamide]
